A value given as a limit tells only on which side of the number the result lay.

The values below come from US8921306B2 (The University of Queensland, priority 2010, dated 2014).

Series [1] concerns the target T1, ORL-1 receptor (Mus musculus, UniProt P35377).
T1 construct: Neuro-2a cells were a gift from Professor John Mattick's laboratory; endogenous in cells; host or cells: Neuro-2a cells
Description: Agonist functional activity assessed by ERK phosphorylation (pERK) in Neuro-2a cells. Format: cell-based. Here is the method:
(§1) Neuro-2a cells were a gift from Professor John Mattick's laboratory (Institute of Molecular Bioscience, University of Queensland) and were cultured in Gibco® DMEM (Invitrogen, CA, USA) supplemented with 10% FBS (Invitrogen, CA, USA), GIBCO® Pen/Strep (50 units/mL penicillin and 50 μg/mL streptomycin, Invitrogen, CA, USA) and GIBCO® NEAA (1× concentration, Invitrogen, CA, USA). Cells were split 1:10 every 3 days.
(§2) All cells were incubated at 37° C. and 5% CO2. When treated with pertussis toxin (PTX, catalogue number P7208, Sigma-Aldrich, NY, USA), cells were incubated with 500 ng/mL for 15 hours before use. Cells treated with MEK inhibitor PD98059 (catalogue number PHZ1164, Invitrogen, CA, USA) were preincubated with 50 μM for 1 hour before use.
(§3) Cells were placed in 12-well plates (NUNC™, NY, USA) and allowed to adhere for 24-36 h. […]
(§4) Membranes were washed 3×10 minutes with TBE (with 0.1% Tween-20) and incubated with a primary antibody. […] Radiography was quantified using ImageJ (ImageI 1.36b, NIH).
(§5) pERK and total ERK concentrations were determined using a modified protocol for the AlphaScreen Surefire Assay. […] The ratio of pERK to total ERK was determined using equation 1 and normalized to control. […]
(§6) Concentration responses were analyzed using non-linear regression (variable slope) (Prism5, GraphPad Software) and data is presented as either EC50 (for agonists) or IC50 (antagonists). […]

Series [2] deals with T1, ORL-1 receptor. Description: Antagonist functional activity assessed by ERK phosphorylation (pERK) in Neuro-2a cells challenged with 100 nM nociceptin(1-17)-NH2. Format: cell-based. On the procedure:
as §1, §2, §3, §4, §5, §6

Series [3] relates to C57BL/6 mice. Description: Anti-nociceptive activity in mice, hot plate front paw withdrawal latency. Format: in vivo. Particulars: co-administered 200 pmol with SEQ ID NO:8 (200 pmol). On the procedure: Mice (C57BL/6; n=45) were brought into the experimental room for at least 30 minutes prior to testing. They were then individually placed on an accredited hot plate heated to 53±0.54° C. and timed until any front paw withdrawal, licking or jumping behaviour was recorded (baseline response). Mice were not left on the hot plate for longer than 30 sec. […] Mice were then individually placed on the hot plate again at time points 1, 5, 15, 30, 45 and 60 min post injection. Each test was video monitored.
In a parallel experiment, agonist of SEQ ID NO:8 was co-administered with the helical antagonist of SEQ ID NO:13, where upon the increased paw withdrawal latency produced by agonist of SEQ ID NO:8 alone was abolished. This confirms that the helix constrained peptide of SEQ ID NO:13 is a potent antagonist of SEQ ID NO:8 in vivo.

Series [4] in a line: Serum stability in normal human serum. The class given is in vitro ADME. As to conditions: 37° C., LCMS, read-out: half-life (t1/2) in normal human serum. Here is the method: Peptide stability was assessed in normal human serum (Sigma-Aldrich, NY, USA). The peptides were incubated with the serum in a water bath at 37° C. and aliquots were removed at specific time points. Serum proteins were precipitated after adding 3-fold excess acetonitrile, and proteins were precipitated by centrifugation at 17,000 rpm for 15 min. The supernatants were collected and analyzed by LCMS (4000 QTRAPR, Applied Biosystems) and all data normalized to the initial time point.

The test system of series [5] is Human erythrocytes. The experiment in a line: Haemolysis assay. The class given is cell-based. As to conditions: 37° C., 1 hour, absorbance at 544 nm. Here is the method: Human erythrocytes were obtained from the Australian Red Cross Blood Service and diluted with PBS (pH 7.4) 1:50 to give a positive control reading of between 1.5-2.0 at 544 nm.
Equal amounts of cells were incubated with various concentrations of peptides and incubated at 37° C. for 1 hour. Cells were pelleted by centrifugation at 17,000 rpm for 5 minutes on a bench top centrifuge and the supernatant was collected. Haemolysis was assessed by reading the absorbance at 544 nm and normalized to 0% (PBS) and 100% (0.1% Triton-X100). This work was done with UQ ethics (200600011) and ARCBS (08-01QLD-07) approval.

The nature of series [6]: Circular dichroism spectroscopy (helicity). Format: physicochemical. Here is the method:
CD measurements were performed using a Jasco model J-710 spectropolarimeter which was routinely calibrated with (1S)-(+)-10-camphorsulfonic acid. A stock solution of 1-2 mg of peptide was dissolved in 1 mL of water. Separate 500 μL solutions of 50, 100, 200 and 400 μM were then prepared using an appropriate amount of stock solution and making up the different with 10 mM Phosphate Buffer (final pH 7.1). […] Jasco quartz cell over the wavelength range 260-185 nm at 100 nm/min. with a bandwidth of 1.0 nm, response time of 2 s, resolution step width of 1 nm and sensitivity of 20-50 Mdeg. Each spectrum represents the average of 5 scans. Spectra were analyzed using the spectral analysis software and smoothed using ‘adaptive smoothing’ function. Concentrations were determined using the PULCON method. [Wider, Dreier, 2006, J. Am. Chem. Soc. 128:2571-2576]
The incorporation of two lactam bridges induced appreciable helicity, monitored at 222 nm, and was calculated to range between 32-77% helicity. […] This is due to the fact that residues 1-6 (or 1-5 in 6) are not constrained and would not be expected to be in a helical conformation as they feature amino acids that have little or no propensity to adopt helices in proteins. To determine whether the exocyclic regions were the sole cause of low helicity, SEQ ID NO:15 without the N-terminal message was investigated further. This 12-residue peptide features eight residues (K, R, Q) known to favor α-helicity in proteins, and was 60% helical in phosphate buffer by CD spectral analysis. The serine residue is conserved within the sequence of many of these peptides and is known to be a helix breaker.
For orientation: Circular dichroism is the unequal absorption of left and right circularly polarised light.

A short description of series [7]: circular dichroism. Particulars: 10 mM phosphate; pH 7.4; 22 °C; 50-400 uM.

T1 sequence (P35377 whole entry): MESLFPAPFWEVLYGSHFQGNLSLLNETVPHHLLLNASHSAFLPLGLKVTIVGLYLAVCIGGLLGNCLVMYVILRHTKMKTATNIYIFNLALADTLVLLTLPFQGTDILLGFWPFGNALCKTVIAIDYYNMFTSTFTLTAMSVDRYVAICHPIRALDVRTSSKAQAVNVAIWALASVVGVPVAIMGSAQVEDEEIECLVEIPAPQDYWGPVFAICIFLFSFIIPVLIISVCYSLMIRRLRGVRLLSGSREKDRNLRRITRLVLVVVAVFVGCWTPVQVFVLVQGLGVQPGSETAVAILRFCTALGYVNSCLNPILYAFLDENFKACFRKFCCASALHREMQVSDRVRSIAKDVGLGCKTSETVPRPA

On to “BzlGGGF(4-F)TG[KRKSD]RK[KKNQD]-NH2 (XGGXTGXRKSXRKXKNQX; N-benzyl, 4-F-Phe, cyclic lactams, C-amide) [SEQ ID NO:13]”, for which the “agonist activity at single point concentration” value in series [1] (1 μM) is “neither showed significant agonist activity”. Further, the “improvement in antagonist activity (fold)” value in series [2] (constrained relative to unconstrained analogue) is “over four-fold”. Further, in series [3], the “effect on increased paw withdrawal latency produced by agonist SEQ ID NO:8” value was “abolished”.
Turning to `C[C@@H]1NC(=O)[C@@H](NC(=O)[C@H](CCCCN)NC(=O)[C@H](CCCN=C(N)N)NC(=O)[C@@H]2CC(=O)NCCCC[C@H](NC(=O)CNC(=O)[C@@H](NC(=O)[C@H](Cc3ccccc3)NC(=O)CNC(=O)CNC(=O)[C@@H](N)Cc3ccccc3)[C@@H](C)O)C(=O)N[C@@H](CCCN=C(N)N)C(=O)N[C@@H](CCCCN)C(=O)N[C@@H](CO)C(=O)N2)CCCCNC(=O)C[C@@H](C(N)=O)NC(=O)[C@H](CCC(N)=O)NC(=O)[C@H](CC(N)=O)NC1=O` [SEQ ID NO:7, H-FGGFTG[KRKSD]RK[KANQD]-NH2], the half-life in series [4] is above 360 min. In addition, the haemolytic activity result in series [5] is “Neither of the cyclic peptides tested (SEQ ID NOs:7 AND 8), nor the unconstrained nociceptin(1-17)-OH (SEQ ID NO:1) had any haemolytic activity”.
The compound “Ac-[KRKSD]RK[KKNQD]-NH2 (XRKSXRKXKNQX; N-acetyl, cyclic lactams, C-amide) [SEQ ID NO:15]” gave a helicity in series [6] (phosphate buffer, CD monitored at 222 nm) of 60%.
For `CC(C)C[C@H](NC(=O)[C@H](CCCCN)NC(=O)[C@H](CCCNC(=N)N)NC(=O)[C@H](C)NC(=O)[C@H](CO)NC(=O)[C@H](CCCCN)NC(=O)[C@H](CCCNC(=N)N)NC(=O)[C@H](C)NC(=O)CNC(=O)[C@@H](NC(=O)[C@H](Cc1ccccc1)NC(=O)CNC(=O)CNC(=O)[C@@H](N)Cc1ccccc1)[C@@H](C)O)C(=O)N[C@@H](C)C(=O)N[C@@H](CC(N)=O)C(=O)N[C@@H](CCC(N)=O)C(=O)O` [compound 1], the helicity in series [7] was 0.02 frac. For the same compound, the “fH (buffer)” value in series [6] (10 mM phosphate buffer (pH 7.4) at 22° C., fH calculated based on θ at 222 nm) is listed as 0.02. Also, the “fH (TFE*)” value in series [6] (buffer: TFE 50:50, 22° C.) was found to be 0.15. This compound also gave a maximal response (Emax) in series [1] (N2a) of 90 ± 7%.
“BzlGlyGGFT[KARKD][KRKLD]-NH2 (XGGFTXARKXXRKLX; N-benzyl, cyclic lactams, C-amide) [SEQ ID NO:14]”: in series [2] (up to 3 μM), the antagonist activity entry is listed as “abolished antagonist activity”.
In the case of `C[C@@H](O)[C@H](NC(=O)[C@H](Cc1ccc(F)cc1)NC(=O)CNC(=O)CNC(=O)[C@@H](N)Cc1ccccc1)C(=O)NCC(=O)N[C@H]1CCCCNC(=O)C[C@@H](C(=O)N[C@@H](CCCN=C(N)N)C(=O)N[C@@H](CCCCN)C(=O)N[C@H]2CCCCNC(=O)C[C@@H](C(N)=O)NC(=O)[C@H](CCC(N)=O)NC(=O)[C@H](CC(N)=O)NC(=O)[C@H](CCCCN)NC2=O)NC(=O)[C@H](CO)NC(=O)[C@H](CCCCN)NC(=O)[C@H](CCCN=C(N)N)NC1=O` [SEQ ID NO:8, H-FGGF(4-F)TG[KRKSD]RK[KKNQD]-NH2], the half-life in series [4] was above 360 min. Also, the haemolytic activity entry in series [5] was “Neither of the cyclic peptides tested (SEQ ID NOs:7 AND 8), nor the unconstrained nociceptin(1-17)-OH (SEQ ID NO:1) had any haemolytic activity”.
Regarding `CC(C)C[C@H](NC(=O)[C@H](CCCCN)NC(=O)[C@H](CCCN=C(N)N)NC(=O)[C@H](C)NC(=O)[C@H](CO)NC(=O)[C@H](CCCCN)NC(=O)[C@H](CCCN=C(N)N)NC(=O)[C@H](C)NC(=O)CNC(=O)[C@@H](NC(=O)[C@H](Cc1ccccc1)NC(=O)CNC(=O)CNC(=O)[C@@H](N)Cc1ccccc1)[C@@H](C)O)C(=O)N[C@@H](C)C(=O)N[C@@H](CC(N)=O)C(=O)N[C@@H](CCC(N)=O)C(=O)O` [SEQ ID NO:1, reference compound], the half-life in series [4] is at most 60 min. For the same compound, in series [5], the haemolytic activity result is recorded as “Neither of the cyclic peptides tested (SEQ ID NOs:7 AND 8), nor the unconstrained nociceptin(1-17)-OH (SEQ ID NO:1) had any haemolytic activity”.

As a reminder, the Emax is the maximal effect, on the per cent scale that the assay sets.
